Results reported in patent publication US20140012013A1, “METHOD FOR PRODUCING PYRAZOLE CARBOXYLIC ACID DERIVATIVE” (SHIONOGI & CO., LTD., priority 2011, published 2014).

Assay: log k′ (degree of lipophilic character) from HPLC retention time under gradient condition
Format: physicochemical
Conditions: XTerra MS C18 5 μm, 2.1×100 mm column; acetonitrile/pH6.8 buffer 5:95~95:5/20 min; flow 0.25 mL/min
Method: log k′ is a value which means degree of the lipophilic character, and is calculated by the following formula.
tR: retention time of compound under gradient condition t0: retention time of standard material not retained in column
XTerra MS C18 5 μm, 2.1×100 mm column (made by Waters) was used for measurement. The elution was a straight line inclination of acetonitrile/pH6.8 buffer (5:95˜95:5/20 min) at flow velocity 0.25 mL/min.

CC(=O)NCC12CC3CC(C1)C(NC(=O)c1cnn(/C=C/C(C)(C)NC(C)=O)c1OCC(C)C)C(C3)C2 (centres unmarked) [Compound (XIII-1-3)]
log k′: 0.838

COC(=O)NC12CC3CC(C1)C(NC(=O)c1cnn(/C=C/C(C)(C)NC(C)=O)c1OCC(C)C)C(C3)C2 (centres unmarked) [Compound (XIII-1-2)]
log k′: 0.886
